22 compounds from patent US9481654B2, “Compositions and methods for inhibition of the JAK pathway” (Rigel Pharmaceuticals, Inc., priority 2006, dated 2016) can be followed below.

SMILES strings stand for the structures. pIC50: −log10 of the molar value. Structures can show the parent of a compound that is named as a salt.

Assay [1] relates to primary human T-cells (IL-2 induced proliferation, JAK-1/JAK-3, Stat-5). In words: Primary Human T-Cell Proliferation Assay Stimulated with IL-2 (CellTiter-Glo). The assay is classed as cell-based. The settings on record: Table III Example 4. On the procedure: In this assay, primary human T-cells derived from peripheral blood and pre-activated through stimulation of the T-cell receptor and CD28, proliferate in culture in response to the cytokine Interleukin-2 (IL-2). This proliferative response is dependent on the activation of JAK1 and JAK3 tyrosine kinases, which phosphorylate and activate the transcription factor Stat-5. The primary human T-cells are incubated with the 2,4-pyrimidinediamine compounds in the presence of IL-2 for 72 hours, and at the assay endpoint intracellular ATP concentrations are measured to assess cell viability. A reduction in cell proliferation compared to control conditions is indicative of inhibition of the JAK kinase pathway.
Primary human T-cells derived from peripheral blood and pre-activated through stimulation of the T-cell receptor and CD28 proliferate in vitro in response to the cytokine Interleukin-2 (IL-2). This proliferative response is dependent on the activation of JAK-1 and JAK-3 tyrosine kinases, which phosphorylate and activate the transcription factor Stat-5.
Human primary T cells were prepared as follows. […] The lymphocytes at the serum: ficoll interface were recovered and washed twice with 5 volumes of PBS. […] The primary T-cells were stimulated for 3 to 4 days, then transferred to a fresh flask and maintained in RPMI with 10% FBS and 40 U/mL IL-2.
Primary T-cells were washed twice with PBS to remove the IL-2 and resuspended in Yssel's medium at 2×10^6 cells/mL. 50 μL of cell suspension containing 80 U/mL IL-2 was added to each well of a flat bottom 96 well black plate. For the unstimulated control, IL-2 was omitted from the last column on the plate. […] 50 μL of 2× compound was added per well in duplicate and the cells were allowed to proliferate for 72 hours at 37° C.
Proliferation was measured using CellTiter-Glo® Luminescent Cell Viability Assay (Promega), which determines the number of viable cells in culture based on quantitation of the ATP present, as an indicator of metabolically active cells. The substrate was thawed and allowed to come to room temperature. After mixing the Cell Titer-Glo reagent and diluent together, 100 μL was added to each well. The plates were mixed on an orbital shaker for two minutes to induce lysis and incubated at room temperature for an additional ten minutes to allow the signal to equilibrate.

For assay [2], the system named is IL-4 stimulated CD23 upregulation in human Ramos B cells (JAK-1/JAK-3, Stat-6). The assay can be described thus: Assay for Ramos B-Cell Line Stimulated with IL-4 (CD23 upregulation, FACS). It is filed as cell-based. The method in brief: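 Flow cytometry of CD23 staining after 20-24 h IL-4 stimulation (50 units/mL final) of human Ramos B cells in RPMI with 5% serum. Cells, 5×10^4 per point, received compound or DMSO vehicle for 1 h at 37° C prior to stimulation.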

The pIC50 is the negative decadic logarithm of the IC50, by convention in mol/L. For `NS(=O)(=O)c1ccc(Nc2ncc(F)c(Nc3ccc(CNS(=O)(=O)c4cccnc4)cc3)n2)cc1` [Compound I-89, N2-(4-aminosulfonyl)phenyl-5-fluoro-N4-[4-(pyrid-3-yl)sulfonylaminomethyl]phenyl-2,4-pyrimidinediamine], the results for the pIC50 in assay [1] and in assay [2] (Table III Example 3) were 5.82 and 6.35, respectively.

Consider `CC(=O)Nc1nc(C)c(S(=O)(=O)NCc2ccc(Nc3nc(Nc4ccc(C)c(S(N)(=O)=O)c4)ncc3F)cc2)s1` [Compound I-44, N4-[4-(2-acetylamino-4-methylthiazol-5-yl)sulfonylaminomethyl]phenyl-N2-(3-aminosulfonyl-4-methyl)phenyl-5-fluoro-2,4-pyrimidinediamine], for which the pIC50 in assay [1] was 5.38; in assay [2] (Table III Example 3), 5.91.

Take `Cc1ccc(Nc2ncc(F)c(Nc3cccc(CS(=O)(=O)NC4CCN(C)CC4)c3)n2)cc1S(N)(=O)=O` [Compound I-107, N2-(3-Aminosulfonyl-4-methylphenyl)-5-fluoro-N4-[3-(1-methylpiperdin-4-ylaminosulfonylmethylene)phenyl]-2,4-pyrimidinediamine]: the pIC50 was 4.74 in assay [1] and 5.53 in assay [2] (Table III Example 3).

For `CS(=O)(=O)CS(=O)(=O)NCc1ccc(Nc2nc(Nc3ccc(S(N)(=O)=O)cc3)ncc2F)cc1` [Compound I-85, N2-(4-aminosulfonyl)phenyl-5-fluoro-N4-[4-(methylsulfonylmethylsulfonylamino)methyl]phenyl-2,4-pyrimidinediamine], the pIC50 in assay [1] was 5.41; in assay [2] (Table III Example 3), 5.51.

On to `NS(=O)(=O)c1ccc(Nc2ncc(F)c(Nc3ccc(CNS(=O)(=O)c4cccs4)cc3)n2)cc1` [Compound I-35, N2-(4-aminosulfonyl)phenyl-5-fluoro-N4-[4-(thiophen-2-yl)sulfonylaminomethyl]phenyl-2,4-pyrimidinediamine], for which the pIC50 in assay [1] is 6.36; in assay [2] (Table III Example 3) it was 6.88.

With `Cc1cnc(Nc2ccc(S(=O)(=O)NC3CCN(C)CC3)cc2)nc1Nc1ccc(CNS(=O)(=O)C2CC2)cc1` [Compound I-151, N4-(4-cyclopropylsulfonylaminomethyl)phenyl-5-methyl-N2-[4-(1-methylpiperidin-4-yl)aminosulfonyl]phenyl-2,4-pyrimidinediamine], the pIC50 in assay [1] was 5.97; in assay [2] (Table III Example 3), 6.45.

As to `NS(=O)(=O)c1cc(Nc2ncc(F)c(Nc3ccc(CNS(=O)(=O)C4CC4)cc3)n2)cc(S(N)(=O)=O)c1` [Compound I-82, N4-(4-cyclopropylsulfonylaminomethyl)phenyl-N2-(3,5-diaminosulfonyl)phenyl-5-fluoro-2,4-pyrimidinediamine], the values for the negative-log IC50 (pIC50) in assay [1] and in assay [2] (Table III Example 3) were 6.02 and 5.96, respectively.

For the compound `Cc1ccc(Nc2ncc(F)c(Nc3ccc(CNS(=O)(=O)CS(C)(=O)=O)cc3)n2)cc1S(N)(=O)=O` [Compound I-87, N2-(3-aminosulfonyl-4-methyl)phenyl-5-fluoro-N4-[4-(methylsulfonylmethylsulfonylamino)methyl]phenyl-2,4-pyrimidinediamine], the pIC50 in assay [1] was 6.51; in assay [2] (Table III Example 3) it was 6.60.

For the compound `Cc1cnc(Nc2cccc(S(=O)(=O)NC(=O)CN)c2)nc1Nc1cccc(CNS(=O)(=O)C2CC2)c1` [Compound I-133, N2-[3-N-(2-amino-1-oxoethyl)aminosulfonyl]phenyl-N4-(3-cyclopropylsulfonylaminomethyl)phenyl-5-methyl-2,4-pyrimidinediamine hydrogen chloride salt], the pIC50 in assay [1] was 5.92; in assay [2] (Table III Example 3), 6.15.

In the case of `CCS(=O)(=O)N[C@@H](C)c1ccc(Nc2nc(Nc3ccc(S(N)(=O)=O)cc3)ncc2F)cc1` [Compound I-26, N2-(4-aminosulfonyl)phenyl-N4-[4-(1S-ethylsulfonylamino)ethyl]phenyl-5-fluoro-2,4-pyrimidinediamine], the pIC50 is 5.94 in assay [1] and 6.60 in assay [2] (Table III Example 3).

For the compound `CCS(=O)(=O)N[C@H](C)c1ccc(Nc2nc(Nc3ccc(S(N)(=O)=O)cc3)ncc2F)cc1` [Compound I-29, N2-(4-aminosulfonyl)phenyl-N4-[4-(1R-ethylsulfonylamino)ethyl]phenyl-5-fluoro-2,4-pyrimidinediamine], the pIC50 in assay [1] was 6.05; in assay [2] (Table III Example 3) it was 6.69.

Consider `Cc1nc(N)sc1S(=O)(=O)NCc1ccc(Nc2nc(Nc3cccc(S(N)(=O)=O)c3)ncc2F)cc1` [Compound I-41, N4-[4-(2-amino-4-methylthiazol-5-yl)sulfonylaminomethyl]phenyl-N2-(3-aminosulfonyl)phenyl-5-fluoro-2,4-pyrimidinediamine], for which the pIC50 in assay [1] was 5.67; in assay [2] (Table III Example 3) it was 5.99.

With `Cc1cnc(Nc2cccc(S(=O)(=O)NCc3ccccc3)c2)nc1Nc1cccc(CNS(=O)(=O)C2CC2)c1` [Compound I-158, N2-(3-benzylaminosulfonyl)phenyl-N4-(3-cyclopropylsulfonylaminomethyl)phenyl-5-methyl-2,4-pyrimidinediamine], the values for the pIC50 in assay [1] and in assay [2] (Table III Example 3) were 6.27 and 6.52, respectively.

As to `NS(=O)(=O)c1ccc(Nc2ncc(F)c(Nc3cccc(CNS(=O)(=O)C4CC4)c3)n2)cc1` [Compound I-32, N2-(4-aminosulfonyl)phenyl-N4-(3-cyclopropylsulfonylaminomethyl)phenyl-5-fluoro-2,4-pyrimidinediamine], the pIC50 in assay [1] is 5.81; in assay [2] (Table III Example 3), 6.44.

As to `Cc1cnc(Nc2cccc(S(=O)(=O)NC(=O)[C@@H](NC(=O)OCc3ccccc3)C(C)C)c2)nc1Nc1cccc(CNS(=O)(=O)C2CC2)c1` [Compound I-147, N2-[3-N-(Cbz-L-Val)aminosulfonyl]phenyl-N4-(3-cyclopropylsulfonylaminomethyl)phenyl-5-methyl-2,4-pyrimidinediamine sodium salt], the pIC50 in assay [1] was 4.60; in assay [2] (Table III Example 3, sodium salt) it was 4.86.

Regarding `CS(=O)(=O)CS(=O)(=O)NCc1ccc(Nc2nc(Nc3cccc(S(N)(=O)=O)c3)ncc2F)cc1` [Compound I-86, N2-(3-aminosulfonyl)phenyl-5-fluoro-N4-[4-(methylsulfonylmethylsulfonylamino)methyl]phenyl-2,4-pyrimidinediamine], the pIC50 was 6.65 in assay [1] and 6.30 in assay [2] (Table III Example 3).

Regarding `CC(=O)Nc1nc(C)c(S(=O)(=O)NCc2ccc(Nc3nc(Nc4cccc(S(N)(=O)=O)c4)ncc3F)cc2)s1` [Compound I-42, N4-[4-(2-acetylamino-4-methylthiazol-5-yl)sulfonylaminomethyl]phenyl-N2-(3-aminosulfonyl)phenyl-5-fluoro-2,4-pyrimidinediamine], the pIC50 in assay [1] is 5.49; in assay [2] (Table III Example 3) it was 5.94.

On to `CCS(=O)(=O)NCc1ccc(Nc2nc(Nc3ccc(S(N)(=O)=O)cc3)ncc2F)cc1Cl` [Compound I-74, N2-(4-aminosulfonyl)phenyl-N4-(3-chloro-4-ethylsulfonylaminomethyl)phenyl-5-fluoro-2,4-pyrimidinediamine], for which the pIC50 is 5.65 in assay [1] and 6.44 in assay [2] (Table III Example 3).

With `Cc1cnc(Nc2ccc(S(N)(=O)=O)cc2)nc1Nc1ccc(CNS(=O)(=O)c2cccnc2)cc1` [Compound I-99, N2-(4-aminosulfonyl)phenyl-5-methyl-N4-[4-(pyrid-3-yl)sulfonylaminomethyl]phenyl-2,4-pyrimidinediamine], the results for the pIC50 in assay [1] and in assay [2] (Table III Example 3) were 6.02 and 6.25, respectively.

As for `Cc1cnc(Nc2ccc(S(=O)(=O)Nc3cccnc3)cc2)nc1Nc1ccc(CNS(=O)(=O)C2CC2)cc1` [Compound I-171, N4-(4-cyclopropylsulfonylaminomethyl)phenyl-5-methyl-N2-[4-(3-pyridyl)aminosulfonyl]phenyl-2,4-pyrimidinediamine], the pIC50 in assay [1] is 4.37; in assay [2] (Table III Example 3) it was 4.71.

On to `Cc1cnc(Nc2ccc(S(=O)(=O)Nc3ccccc3)cc2)nc1Nc1cccc(CNS(=O)(=O)C2CC2)c1` [Compound I-155, N4-(3-cyclopropylsulfonylaminomethyl)phenyl-5-methyl-N2-(4-phenylaminosulfonyl)phenyl-2,4-pyrimidinediamine], for which the pIC50 in assay [1] is 5.85; in assay [2] (Table III Example 3), 6.60.

For the compound `CN1CCC(NS(=O)(=O)Cc2cccc(Nc3nc(Nc4cccc(S(N)(=O)=O)c4)ncc3F)c2)CC1` [Compound I-108, N2-(3-Aminosulfonylphenyl)-5-fluoro-N4-[3-(1-methylpiperdin-4-ylaminosulfonylmethylene)phenyl]-2,4-pyrimidinediamine], the pIC50 in assay [1] is 4.59; in assay [2] (Table III Example 3) it was 5.29.
